# System: 9L cells
# Assay: MTT cytotoxicity assay, 9L cells
# Type: cell-based
# Conditions: 72 hours, read-out: Inhibitory concentration 50% (IC50)
# Protocol: FIGS. 1A-1B are graphs that show an anti-tumor effect of nifuroxazide. (FIG. 1A) Cells were treated with indicated concentration of nifuroxazide for 72 hours. Cytotoxicity was measured by using MTT assay. (FIG. 1B) Subcutaneously U87 tumor bearing mice were peritoneally injected with indicated doses of nifuroxazide. Tumor size was measured using calipers at day 7 post nifuroxazide treatment.
# In this example, the antitumor effect of nifuroxazide is evaluated in different tumor cells. Cells were treated with nifuroxazide for 72 hours (FIG. 1A). […] To verify the anti-tumor efficacy of nifuroxazide in vivo, animals with subcutaneous U87 tumor implants were injected in the peritoneum with vehicle, 1 mg/kg nifuroxazide and 50 mg/kg nifuroxazide. […] Tumor volume was reduced around 25% and 60% after 7 days treatment with 1 mg/kg nifuroxazide and 50 mg/kg nifuroxazide respectively (FIG. 1B).
# Cells were seeded in a 96-well plate at a density of 1×104 (U87). After overnight incubation, cells were treated with only vehicle or indicated MOI of virus or indicated concentration of drugs or reagents. After 2 to 3 days of treatment cell viability was measured by MTT assay (Sigma, Canada) according to the manufacturer's instruction. […] After overnight incubation with lysis buffer, cell viability was measured at 595 nm using a plate reader (Envision 2103 Multilabel reader, Perkin Elmer).
structure (smiles),measurement,value
"O=C(N/N=C/c1ccc([N+](=O)[O-])o1)c1ccc(O)cc1 [nifuroxazide, Benzoic acid, 4-hydroxy-, [(5-nitro-2-furanyl)metylene]hydrazide]",IC50,~27 µM

# — US20190307820A1, “COMPOSITIONS AND METHODS OF USING STAT1/3 INHIBITORS WITH ONCOLYTIC HERPES VIRUS” (priority 2016, published 2019)
